Assay results from PubChem BioAssay (NCI).
Where “and” joins values, the source holds several entries; their conditions need not be identical. Equal entries are not always repeated.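 Compound exposure: 48 hours, 5 concentrations, 96-well plates. GI50: concentration for 50% inhibition of growth. At the TGI there is no net growth.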

The compounds below were run on KM20L2 colon (assay: growth of human tumour cells (NCI), 48 h).

| SMILES | TGI [µM] | GI50 [µM] |
| --- | --- | --- |
| Cc1nc(N)sc1C(=O)/C=C\c1ccc2c(c1)OCO2 | > 100 | – |
| COc1cc(C(C)O)c[n+](CCc2c[nH]c3ccccc23)c1 (centres undefined) | > 100 | – |
| CC1(C)SCc2nc3ncccc3n21 | > 100 | – |
| Cn1c(=O)c(C(c2ccc([N+](=O)[O-])cc2)c2c(O)c3ccccc3n(C)c2=O)cc2ccccc21 (centres undefined) | > 100 | – |
| COc1ccc(C(=O)C(C(=O)CCC(=O)Nc2cccc(Cl)c2)c2ccc(OC)cc2)cc1 (centres undefined) | > 100 | – |
| Cc1ccc(C2=C(c3ccccc3)C(Br)(c3ccc(C)cc3)C(c3ccccc3)=C2c2ccc(C)cc2)cc1 | > 100 | – |
| O=C(O)C1OC(n2cc(F)c(=O)[nH]c2=O)CC1O (centres undefined) | > 100 | – |
| Cc1cccc(NC(=O)C(=O)C(C(=O)c2ccc3ccccc3c2)C2OC(=O)c3ccccc32)c1C (centres undefined) | > 100 | – |
| CC(=O)/C(C)=N/NC(=O)c1ccccc1O | > 10 | – |
| CC(=O)[O-].CCN(CC)c1ccc(C=NCCN=Cc2ccc(N(CC)CC)cc2[O-])c([O-])c1.[Mn+3] | 33.2 | 17.8 |
| NC(N)=N/N=C(\c1nc2ccc([N+](=O)[O-])cc2[nH]c1=O)C(O)c1ccc([N+](=O)[O-])cc1 (centres undefined) | > 100 | – |
| CCC[CH2][Sn]1([CH2]CCC)[O]CC(CN2CCCC2)[O]1 (centres undefined) | 52 | 20.6 |
| CC1(C)C(=O)N(CCCCCCN2C(=O)C(C)(C)c3ccccc32)c2ccccc21 | > 100 | – |
| NCCCCN(CCCN)/[N+]([O-])=N\O | > 100 | – |
| CCOc1ccccc1NC(=O)CC(C(=O)OC)C(=O)C(=O)OC (centres undefined) | > 100 | – |
| COc1cccc2c1C(=O)c1c(O)c3c(c(O)c1C2=O)C[C@@](O)(C(C)=O)C[C@@H]3OC1OC(C)C(O)C(N)C1Br (some centres undefined) | 1.17 | – |
| COC(=O)C1=C(C)N(NC(=O)OC(C)(C)C)C(=O)C1=P(c1ccccc1)(c1ccccc1)c1ccccc1 | > 100 | – |
| Cc1cccc(NC(=O)/C(=N\NC(C)(C)C)C2NC(=S)NC2=O)c1C (centres undefined) | > 100 | – |
| C[C@@H]1CC(=O)C2CCCC1C2=O (some centres undefined) | > 100 | – |
| c1ccc(CNn2nnc3ccccc32)cc1 | > 100 | – |

The compounds below were run on MCF7 breast (assay: growth of human tumour cells (NCI), 48 h).

| SMILES | TGI | GI50 [µM] |
| --- | --- | --- |
| O=C(O)C1OC(n2cc(F)c(=O)[nH]c2=O)CC1O (centres undefined) | > 100 µM | – |
| CC(=O)/C(C)=N/NC(=O)c1ccccc1O | > 100 µM | – |
| COc1cc2c(c(OC)c1OC)-c1ccc(OC)c(=O)cc1[C@@H](NC(=O)c1ccccc1)CC2 | 30 µM and > 7.65 µM | < 0.003 |

The compounds below were run on M19-MEL melanoma (assay: growth of human tumour cells (NCI), 48 h).

| SMILES | TGI | GI50 [µM] |
| --- | --- | --- |
| Cc1nc(N)sc1C(=O)/C=C\c1ccc2c(c1)OCO2 | > 100 µM | – |
| COc1cc(C(C)O)c[n+](CCc2c[nH]c3ccccc23)c1 (centres undefined) | > 100 µM | – |
| CC1(C)SCc2nc3ncccc3n21 | > 100 µM | – |
| Cn1c(=O)c(C(c2ccc([N+](=O)[O-])cc2)c2c(O)c3ccccc3n(C)c2=O)cc2ccccc21 (centres undefined) | > 100 µM | – |
| Cc1cn(C2CC(O)C(CO)O2)c(=O)n2nnnc12 (centres undefined) | > 100 µM | – |
| COc1ccc(C(=O)C(C(=O)CCC(=O)Nc2cccc(Cl)c2)c2ccc(OC)cc2)cc1 (centres undefined) | > 100 µM | – |
| Cc1ccc(C2=C(c3ccccc3)C(Br)(c3ccc(C)cc3)C(c3ccccc3)=C2c2ccc(C)cc2)cc1 | > 100 µM | – |
| CC1CC[C@]2(C(=O)O)CCC3(C)C(=CC(=O)C4[C@@]5(C)CCC(=O)C(C)(C)C5CC[C@]43C)[C@@H]2[C@H]1C (some centres undefined) | 71.3 µM | – |
| O=C(O)C1OC(n2cc(F)c(=O)[nH]c2=O)CC1O (centres undefined) | > 100 µM | – |
| Cc1cccc(NC(=O)C(=O)C(C(=O)c2ccc3ccccc3c2)C2OC(=O)c3ccccc32)c1C (centres undefined) | 21.9 µM | – |
| CC(=O)/C(C)=N/NC(=O)c1ccccc1O | > 10 µM | – |
| CC(C)(C)c1ccc2c(c1)S(=O)(=O)Nc1ccccc1NS(=O)(=O)c1cc(C(C)(C)C)ccc1OCCOCCOCCO2 | > 100 µM | – |
| CC(=O)[O-].CCN(CC)c1ccc(C=NCCN=Cc2ccc(N(CC)CC)cc2[O-])c([O-])c1.[Mn+3] | 32.4 µM | 17.7 |
| NC(N)=N/N=C(\c1nc2ccc([N+](=O)[O-])cc2[nH]c1=O)C(O)c1ccc([N+](=O)[O-])cc1 (centres undefined) | > 100 µM | – |
| CCC[CH2][Sn]1([CH2]CCC)[O]CC(CN2CCCC2)[O]1 (centres undefined) | 29.4 µM | 14.6 |
| CC1(C)C(=O)N(CCCCCCN2C(=O)C(C)(C)c3ccccc32)c2ccccc21 | 65.2 µM | – |
| COc1cc2c(c(OC)c1OC)-c1ccc(OC)c(=O)cc1[C@@H](NC(=O)c1ccccc1)CC2 | > 100 µM | – |
| NCCCCN(CCCN)/[N+]([O-])=N\O | > 100 µM | – |
| CCOc1ccccc1NC(=O)CC(C(=O)OC)C(=O)C(=O)OC (centres undefined) | > 100 µM | – |
| COc1cccc2c1C(=O)c1c(O)c3c(c(O)c1C2=O)C[C@@](O)(C(C)=O)C[C@@H]3OC1OC(C)C(O)C(N)C1Br (some centres undefined) | 0.364 µM and 0.328 µM | – |
| COC(=O)C1=C(C)N(NC(=O)OC(C)(C)C)C(=O)C1=P(c1ccccc1)(c1ccccc1)c1ccccc1 | > 100 µM | – |
| Cc1cccc(NC(=O)/C(=N\NC(C)(C)C)C2NC(=S)NC2=O)c1C (centres undefined) | > 100 µM | – |
| C[C@@H]1CC(=O)C2CCCC1C2=O (some centres undefined) | > 100 µM | – |
| c1ccc(CNn2nnc3ccccc32)cc1 | > 100 µM | – |

The compounds below were run on DMS 114 small cell lung (assay: growth of human tumour cells (NCI), 48 h).

| SMILES | TGI | GI50 [µM] |
| --- | --- | --- |
| Cc1nc(N)sc1C(=O)/C=C\c1ccc2c(c1)OCO2 | > 100 µM | – |
| COc1cc(C(C)O)c[n+](CCc2c[nH]c3ccccc23)c1 (centres undefined) | > 100 µM | – |
| CC1(C)SCc2nc3ncccc3n21 | > 100 µM | – |
| Cn1c(=O)c(C(c2ccc([N+](=O)[O-])cc2)c2c(O)c3ccccc3n(C)c2=O)cc2ccccc21 (centres undefined) | > 100 µM | – |
| Cc1cn(C2CC(O)C(CO)O2)c(=O)n2nnnc12 (centres undefined) | > 100 µM | – |
| Cc1ccc(C2=C(c3ccccc3)C(Br)(c3ccc(C)cc3)C(c3ccccc3)=C2c2ccc(C)cc2)cc1 | > 100 µM | – |
| CC1CC[C@]2(C(=O)O)CCC3(C)C(=CC(=O)C4[C@@]5(C)CCC(=O)C(C)(C)C5CC[C@]43C)[C@@H]2[C@H]1C (some centres undefined) | 63.1 µM | – |
| O=C(O)C1OC(n2cc(F)c(=O)[nH]c2=O)CC1O (centres undefined) | > 100 µM | – |
| Cc1cccc(NC(=O)C(=O)C(C(=O)c2ccc3ccccc3c2)C2OC(=O)c3ccccc32)c1C (centres undefined) | 35.2 µM | – |
| CC(=O)/C(C)=N/NC(=O)c1ccccc1O | > 10 µM | – |
| CC(C)(C)c1ccc2c(c1)S(=O)(=O)Nc1ccccc1NS(=O)(=O)c1cc(C(C)(C)C)ccc1OCCOCCOCCO2 | > 100 µM | – |
| CC(=O)[O-].CCN(CC)c1ccc(C=NCCN=Cc2ccc(N(CC)CC)cc2[O-])c([O-])c1.[Mn+3] | 35.8 µM | 19.6 |
| NC(N)=N/N=C(\c1nc2ccc([N+](=O)[O-])cc2[nH]c1=O)C(O)c1ccc([N+](=O)[O-])cc1 (centres undefined) | 75 µM | – |
| CCC[CH2][Sn]1([CH2]CCC)[O]CC(CN2CCCC2)[O]1 (centres undefined) | 27 µM | 13 |
| CC1(C)C(=O)N(CCCCCCN2C(=O)C(C)(C)c3ccccc32)c2ccccc21 | 43.4 µM | – |
| COc1cc2c(c(OC)c1OC)-c1ccc(OC)c(=O)cc1[C@@H](NC(=O)c1ccccc1)CC2 | < 0.016 µM | – |
| NCCCCN(CCCN)/[N+]([O-])=N\O | > 100 µM | – |
| CCOc1ccccc1NC(=O)CC(C(=O)OC)C(=O)C(=O)OC (centres undefined) | > 100 µM | – |
| COc1cccc2c1C(=O)c1c(O)c3c(c(O)c1C2=O)C[C@@](O)(C(C)=O)C[C@@H]3OC1OC(C)C(O)C(N)C1Br (some centres undefined) | 0.428 µM and 0.212 µM | 0.0233 |
